Here are results for four compounds from ChEMBL document CHEMBL1139598, “A discriminant model constructed by the support vector machine method for HERG potassium channel inhibitors” (Bioorg Med Chem Lett, 2005).

For the test, the target named is Voltage-gated inwardly rectifying potassium channel KCNH2 (Homo sapiens, UniProt Q12809). As to the kind of experiment: Inhibitory concentration against potassium channel HERG.
Chain of Voltage-gated inwardly rectifying potassium channel KCNH2 (Q12809 whole entry): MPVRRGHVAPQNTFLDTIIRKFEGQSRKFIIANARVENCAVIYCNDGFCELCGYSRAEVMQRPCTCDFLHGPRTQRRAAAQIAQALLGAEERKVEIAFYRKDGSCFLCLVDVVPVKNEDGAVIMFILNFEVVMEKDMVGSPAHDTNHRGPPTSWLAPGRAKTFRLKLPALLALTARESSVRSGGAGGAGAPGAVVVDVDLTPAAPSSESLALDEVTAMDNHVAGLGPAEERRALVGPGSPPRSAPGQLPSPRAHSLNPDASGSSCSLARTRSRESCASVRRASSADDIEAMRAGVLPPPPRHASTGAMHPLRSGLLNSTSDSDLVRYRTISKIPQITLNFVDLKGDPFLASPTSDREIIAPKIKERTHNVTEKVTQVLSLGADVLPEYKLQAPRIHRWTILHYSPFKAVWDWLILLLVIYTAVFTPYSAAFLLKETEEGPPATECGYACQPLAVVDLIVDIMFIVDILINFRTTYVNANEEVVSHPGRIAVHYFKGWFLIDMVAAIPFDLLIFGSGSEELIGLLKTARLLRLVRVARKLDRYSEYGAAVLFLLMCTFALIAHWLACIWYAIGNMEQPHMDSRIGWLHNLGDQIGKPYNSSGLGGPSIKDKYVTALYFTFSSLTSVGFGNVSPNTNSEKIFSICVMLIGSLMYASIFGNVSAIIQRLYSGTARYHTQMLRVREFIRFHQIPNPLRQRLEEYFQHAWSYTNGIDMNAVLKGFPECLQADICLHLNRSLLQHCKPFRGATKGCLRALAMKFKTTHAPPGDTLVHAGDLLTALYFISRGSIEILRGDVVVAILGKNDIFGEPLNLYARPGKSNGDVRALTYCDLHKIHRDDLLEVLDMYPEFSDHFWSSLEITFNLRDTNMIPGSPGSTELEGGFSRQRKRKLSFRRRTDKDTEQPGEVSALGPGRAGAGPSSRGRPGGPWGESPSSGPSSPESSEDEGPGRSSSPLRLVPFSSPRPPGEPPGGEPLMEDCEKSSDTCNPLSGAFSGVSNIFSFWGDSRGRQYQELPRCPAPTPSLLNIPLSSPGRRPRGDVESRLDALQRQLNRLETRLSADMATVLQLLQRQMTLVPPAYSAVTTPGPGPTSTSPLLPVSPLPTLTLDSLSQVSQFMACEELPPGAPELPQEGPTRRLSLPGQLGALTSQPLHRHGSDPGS

`COc1ccc2c3c1O[C@H]1[C@@H](O)C=C[C@H]4[C@@H](C2)N(C)CC[C@@]341` [CODEINE] gave a 50% inhibitory concentration (IC50) of 302 µM.

On to `COc1cc2nc(N3CCN(C(=O)c4ccco4)CC3)nc(N)c2cc1OC` [PRAZOSIN], for which the half-inhibitory concentration (IC50) is 1.58 µM.

Take `CC[C@H](OC(C)=O)C(C[C@H](C)N(C)C)(c1ccccc1)c1ccccc1` [LEVOMETHADYL ACETATE]: the IC50 was 2.19 µM.

`CCC(=O)C(CC(C)N(C)C)(c1ccccc1)c1ccccc1` (centres undefined) [METHADONE]: the concentration for half-maximal inhibition (IC50) was 9.77 µM.

One may read the IC50 as the concentration that inhibits the measured activity by half. A higher IC50 goes with lower potency.
